Data from patent US12410209B2, “Modified glucocorticoids” (Board of Regents, The University of Texas System, priority 2021, dated 2025).

What was measured:
Format in all cases: cell-based, human
HaCaT cells = assay: MTT assay for cell viability; details: for sensitivity of cells to glucocorticoid treatment (cell proliferation): normal HaCaT cells compared to cancerous PM1 and Met4 cells
PM1 cells = assay: MTT assay for cell viability; details: cancerous PM-1 cells, range of concentrations, FIG. 2
Met4 cells = assay: MTT assay for cell viability; details: cancerous Met4 cells, range of concentrations, FIG. 2
IL-1β mRNA = assay: qPCR analysis of LPS-induced IL-1β mRNA; details: HaCat cells, LPS-induced inflammation, FIG. 5
Text: qPCR analysis is shown FIG. 5.

With `C[C@]12CCC(=O)C=C1CC[C@@H]1[C@@H]2[C@@H](F)C[C@@]2(C)[C@H]1CC[C@]2(O)C(=O)CO` [F-MOD, 11-deoxyfluorocortisol] the “sensitivity of cells to glucocorticoid treatment (cell proliferation)” value (HaCaT cells) was “more sensitive”, the “potency against cell proliferation compared with cortisol” value (“potency … compared with cortisol” for short) (HaCaT cells; normal HaCaT cells, range of concentrations, FIG. 2) was “at least as powerful as the original cortisol” and the “potency … compared with cortisol” value (PM1 cells) was “at least as powerful as the original cortisol if not stronger”. For the same compound, the “potency … compared with cortisol” value (Met4 cells) was “at least as powerful as the original cortisol” and the “LPS-induced increase of inflammatory cytokine IL-1β” value (IL-1β mRNA) was “significantly suppressed”.
`C[C@]12CCC(=O)C=C1CC[C@@H]1[C@@H]2[C@@H](O)C[C@@]2(C)[C@H]1CC[C@]2(O)C(=O)CO` [cortisol, reference compound] was tested, and the “sensitivity of cells to glucocorticoid treatment (cell proliferation)” value (HaCaT cells) was “more sensitive” and the “LPS-induced increase of inflammatory cytokine IL-1β” value (IL-1β mRNA) was “significantly suppressed”.
